Measured values reported in patent publication US12692261B2, “Substituted heterocyclic compounds and therapeutic uses thereof” (Bayer Aktiengesellschaft, priority 2020, dated 2026).
Several values for one entry are separate records, joined by “and”; a condition that tells them apart may be missing. Equal values may be shown once.

Key:
[1] = biological target: T1, full-length human CSNK1A1 (Homo sapiens, UniProt P48729); experiment: CSNK1A1 High ATP Assay (ADP-Glo, 1 mM ATP); type: biochemical; conditions: Table 3, read-out: CSNK1A1 high ATP assay IC50 [mol/l] (median);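 further: 30 min kinase reaction at 22 °C with 100 µM peptide substrate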
T1 construct: N-terminal Glutathion-S-Transferase (GST) and full-length human CSNK1A1; purchased Life Technologies PV4174; host or cells: baculovirus infected insect cells
T1 sequence (P48729 whole entry): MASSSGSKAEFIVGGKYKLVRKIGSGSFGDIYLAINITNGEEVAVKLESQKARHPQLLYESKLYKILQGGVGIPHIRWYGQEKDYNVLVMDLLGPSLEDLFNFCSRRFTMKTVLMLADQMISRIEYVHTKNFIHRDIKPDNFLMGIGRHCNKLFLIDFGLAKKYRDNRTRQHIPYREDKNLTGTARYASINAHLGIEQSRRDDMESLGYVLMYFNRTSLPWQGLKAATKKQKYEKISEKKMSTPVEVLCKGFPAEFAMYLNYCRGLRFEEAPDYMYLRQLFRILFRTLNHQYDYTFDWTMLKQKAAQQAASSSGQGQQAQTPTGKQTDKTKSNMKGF
Method in brief: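 GST-tagged full-length human CSNK1A1 from baculovirus-infected insect cells (typically about 0.4 ng/μL), pre-incubated with compound 15 min at 22 °C. Reaction with biotinylated peptide biotin-Ahx-KRRRAL-pS-VASLPGL at 1 mM ATP. ADP formed read by ADP-Glo luminescence.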

full-length human CSNK1D = biological target: T2, full-length human CSNK1D (Homo sapiens, UniProt P48730); experiment: CSNK1D Assay (ADP-Glo, 1 μM ATP); type: biochemical; conditions: Table 3, read-out: CSNK1D IC50 [mol/l] (median)
T2 construct: N-terminal Glutathion-S-Transferase (GST) and full-length human CSNK1D; purchased Life Technologies PV3665; host or cells: baculovirus infected insect cells
T2 sequence (P48730 whole entry): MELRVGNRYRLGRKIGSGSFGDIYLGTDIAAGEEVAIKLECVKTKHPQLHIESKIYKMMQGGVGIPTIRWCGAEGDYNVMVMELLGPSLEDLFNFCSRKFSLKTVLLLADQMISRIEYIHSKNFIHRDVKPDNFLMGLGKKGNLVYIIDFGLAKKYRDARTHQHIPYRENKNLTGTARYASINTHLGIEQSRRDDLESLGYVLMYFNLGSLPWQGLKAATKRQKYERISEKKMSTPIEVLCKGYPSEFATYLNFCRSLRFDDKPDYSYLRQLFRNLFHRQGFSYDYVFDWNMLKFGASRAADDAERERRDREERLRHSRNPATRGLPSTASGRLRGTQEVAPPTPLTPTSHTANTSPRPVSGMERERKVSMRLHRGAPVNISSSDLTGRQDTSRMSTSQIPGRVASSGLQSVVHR
Method in brief: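 Enzyme is N-terminal GST-tagged full-length human CSNK1D from baculovirus-infected insect cells (typically about 0.5 ng/μL), with a biotinylated peptide substrate and 1 μM ATP. Compound pre-incubated 15 min at 22° C in HEPES pH 7.5 buffer; ADP formed is read by ADP-Glo luminescence.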

SMILES	IC50 [1]	IC50 (full-length human CSNK1D) [nM]
O=C(Nc1cc(-c2[nH]c3cc(F)cnc3c2-c2ccccn2)ccn1)C(CC(F)F)c1ccc(F)cc1 (single isomer, unassigned; (+)) [Example 17, (+)-4,4-difluoro-2-(4-fluorophenyl)-N-{4-[6-fluoro-3-(pyridin-2-yl)-1H-pyrrolo[3,2-b]pyridin-2-yl]pyridin-2-yl}butanamide]	5.48 nM	3.16
Cc1ccc2[nH]c(-c3ccnc(NC(=O)C(CC(F)F)c4ccc(F)cc4)c3)c(-c3ccccn3)c2n1 (single isomer, unassigned) [Example 5, 4,4-difluoro-2-(4-fluorophenyl)-N-{4-[5-methyl-3-(pyridin-2-yl)-1H-pyrrolo[3,2-b]pyridin-2-yl]pyridin-2-yl}butanamide]	119 nM	7.13
COc1cc(F)nc2c(-c3ccccn3)c(-c3ccnc(NC(=O)C(CC(F)F)c4ccc(F)cc4)c3)[nH]c12 (single isomer, unassigned; (-)) [Example 41, (−)-4,4-difluoro-N-{4-[5-fluoro-7-methoxy-3-(pyridin-2-yl)-1H-pyrrolo[3,2-b]pyridin-2-yl]pyridin-2-yl}-2-(4-fluorophenyl)butanamide]	3.37 nM	4.13
O=C(Nc1cc(-c2[nH]c3ccc(F)nc3c2-c2cc(F)ccn2)ccn1)C(CC(F)F)c1ccc(F)cc1 (single isomer, unassigned) [Example 97, (2R or S)-4,4-difluoro-N-{4-[5-fluoro-3-(4-fluoropyridin-2-yl)-1H-pyrrolo[3,2-b]pyridin-2-yl]pyridin-2-yl}-2-(4-fluorophenyl)butanamide]	36 nM	67
O=C(Nc1cc(-c2[nH]c3cccnc3c2-c2cccc(F)n2)ccn1)C(CC(F)F)c1ccc(F)cc1 (racemic) [Example 25, 4,4-difluoro-2-(4-fluorophenyl)-N-{4-[3-(6-fluoropyridin-2-yl)-1H-pyrrolo[3,2-b]pyridin-2-yl]pyridin-2-yl}butanamide]	18.6 nM	7.87
O=C(Nc1cc(-c2[nH]c3c(C4CCCO4)cc(F)nc3c2-c2ccccn2)ccn1)C(CC(F)F)c1ccc(F)cc1 (single isomer, unassigned) [Example 116, (2R or S)-4,4-difluoro-N-(4-{5-fluoro-7-[(2R or S)-oxolan-2-yl]-3-(pyridin-2-yl)-1H-pyrrolo[3,2-b]pyridin-2-yl}pyridin-2-yl)-2-(4-fluorophenyl)butanamide]	13.2 nM	4.25
Cc1cc2[nH]c(-c3ccnc(NC(=O)C(CC(F)F)c4ccc(F)cc4)c3)c(-c3ccccn3)c2nc1F (racemic) [Example 33, (rac)-4,4-difluoro-N-{4-[5-fluoro-6-methyl-3-(pyridin-2-yl)-1H-pyrrolo[3,2-b]pyridin-2-yl]pyridin-2-yl}-2-(4-fluorophenyl)butanamide]	19.5 nM	37.3
O=C(Nc1cc(-c2[nH]c3c(OCC4CC4)ncnc3c2-c2ccccn2)ccn1)C(CC(F)F)c1ccc(F)cc1 (single isomer, unassigned) [Example 130, (2R or S)—N-{4-[4-(cyclopropylmethoxy)-7-(pyridin-2-yl)-5H-pyrrolo[3,2-d]pyrimidin-6-yl]pyridin-2-yl}-4,4-difluoro-2-(4-fluorophenyl)butanamide]	4960 nM and > 5710 nM	55.8
O=C(Nc1cc(-c2[nH]c3cc(F)cnc3c2-c2ccccc2)ccn1)C(CC(F)F)c1ccc(F)cc1 (single isomer, unassigned; (-)) [Example 20, (−)-4,4-difluoro-2-(4-fluorophenyl)-N-[4-(6-fluoro-3-phenyl-1H-pyrrolo[3,2-b]pyridin-2-yl)pyridin-2-yl]butanamide]	10100 nM	47.8
O=C(Nc1cc(-c2[nH]c3ccc(F)nc3c2-c2cc(F)ccn2)ccn1)C(CC(F)F)c1ccc(F)cc1 (single isomer, unassigned) [Example 96, (2R or S)-4,4-difluoro-N-{4-[5-fluoro-3-(4-fluoropyridin-2-yl)-1H-pyrrolo[3,2-b]pyridin-2-yl]pyridin-2-yl}-2-(4-fluorophenyl)butanamide]	4.67 nM	10.4
O=C(Nc1cc(-c2[nH]c3cccnc3c2-c2ccccn2)ccn1)C(CC(F)F)c1ccc(F)cc1 (single isomer, unassigned; (-)) [Example 12, (−)-4,4-difluoro-2-(4-fluorophenyl)-N-{4-[3-(pyridin-2-yl)-1H-pyrrolo[3,2-b]pyridin-2-yl]pyridin-2-yl}butanamide]	856 nM	12.4
O=C(Nc1cc(-c2[nH]c3c(OC4CC4)cc(F)nc3c2-c2ccccn2)ccn1)C(CC(F)F)c1ccc(F)cc1 (stereo not shown) [Example 45]	22.3 nM	40.4
O=C(Nc1cc(-c2[nH]c3c(N4CCNCC4)ccnc3c2-c2ccccn2)ccn1)C(CC(F)F)c1ccc(F)cc1 (single isomer, unassigned) [Example 94, (2R or S)-4,4-difluoro-2-(4-fluorophenyl)-N-{4-[7-(piperazin-1-yl)-3-(pyridin-2-yl)-1H-pyrrolo[3,2-b]pyridin-2-yl]pyridin-2-yl}butanamide]	2.31 nM	3.67
COc1ncnc2c(-c3ccccn3)c(-c3ccnc(NC(=O)C(CC(F)F)c4ccc(F)cc4)c3)[nH]c12 (stereo not shown) [Example 113, 4,4-difluoro-2-(4-fluorophenyl)-N-{4-[4-methoxy-7-(pyridin-2-yl)-5H-pyrrolo[3,2-d]pyrimidin-6-yl]pyridin-2-yl}butanamide]	157 nM	9.2
CC(C)(O)c1cc(F)nc2c(-c3ccccn3)c(-c3ccnc(NC(=O)C(CC(F)F)c4ccc(F)cc4)c3)[nH]c12 (single isomer, unassigned) [Example 99, (2R or S)-4,4-difluoro-N-{4-[5-fluoro-7-(2-hydroxypropan-2-yl)-3-(pyridin-2-yl)-1H-pyrrolo[3,2-b]pyridin-2-yl]pyridin-2-yl}-2-(4-fluorophenyl)butanamide]	3.55 nM	3.36
O=C(Nc1cc(-c2[nH]c3c(OCC(F)F)cc(F)nc3c2-c2ccccn2)ccn1)C(CC(F)F)c1ccc(F)cc1 (single isomer, unassigned) [Example 29, (2R or S)—N-{4-[7-(2,2-difluoroethoxy)-5-fluoro-3-(pyridin-2-yl)-1H-pyrrolo[3,2-b]pyridin-2-yl]pyridin-2-yl}-4,4-difluoro-2-(4-fluorophenyl)butanamide]	3.31 nM	2.32
COc1cnc2c(-c3ccccn3)c(-c3ccnc(NC(=O)C(CC(F)F)c4ccc(F)cc4)c3)[nH]c2n1 (single isomer, unassigned) [Example 103, 4,4-difluoro-2-(4-fluorophenyl)-N-{4-[3-methoxy-7-(pyridin-2-yl)-5H-pyrrolo[2,3-b]pyrazin-6-yl]pyridin-2-yl}butanamide]	1.97 nM	4.3
O=C(Nc1cc(-c2[nH]c3cccnc3c2-c2ccccc2)ccn1)C(CC(F)F)c1ccc(F)cc1 (single isomer, unassigned; (+)) [Example 24, (+)-4,4-difluoro-2-(4-fluorophenyl)-N-[4-(3-phenyl-1H-pyrrolo[3,2-b]pyridin-2-yl)pyridin-2-yl]butanamide]	66.6 nM	2.48
COc1cc(F)nc2c(-c3ccccn3)c(-c3ccnc(NC(=O)C(CC(F)F)c4ccc(F)cc4)c3)[nH]c12 (single isomer, unassigned; (+)) [Example 40, (+)-4,4-difluoro-N-{4-[5-fluoro-7-methoxy-3-(pyridin-2-yl)-1H-pyrrolo[3,2-b]pyridin-2-yl]pyridin-2-yl}-2-(4-fluorophenyl)butanamide]	3.69 nM	5.57
O=C(Nc1cc(-c2[nH]c3nccnc3c2-c2ccccn2)ccn1)C(CC(F)(F)F)c1ccc(F)cc1 (racemic) [Example 119, (2RS)-4,4,4-trifluoro-2-(4-fluorophenyl)-N-{4-[7-(pyridin-2-yl)-5H-pyrrolo[2,3-b]pyrazin-6-yl]pyridin-2-yl}butanamide]	48.6 nM	7.07
O=C(Nc1cc(-c2[nH]c3c(OC4CC4)cc(F)nc3c2-c2ccccn2)ccn1)C(CC(F)F)c1ccc(F)cc1 (single isomer, unassigned) [Example 43, N-{4-[7-(cyclopropyloxy)-5-fluoro-3-(pyridin-2-yl)-1H-pyrrolo[3,2-b]pyridin-2-yl]pyridin-2-yl}-4,4-difluoro-2-(4-fluorophenyl)butanamide]	10.2 nM	7.64
O=C(Nc1cc(-c2[nH]c3nc(OC(F)F)cnc3c2-c2ccccn2)ccn1)C(CC(F)F)c1ccc(F)cc1 (stereo not shown) [Example 105, N-{4-[3-(difluoromethoxy)-7-(pyridin-2-yl)-5H-pyrrolo[2,3-b]pyrazin-6-yl]pyridin-2-yl}-4,4-difluoro-2-(4-fluorophenyl)butanamide]	10.9 nM	12.3
O=C(Nc1cc(-c2[nH]c3c(CC4CC4)cc(F)nc3c2-c2ccccn2)ccn1)C(CC(F)F)c1ccc(F)cc1 (single isomer, unassigned) [Example 48, (2R or S)—N-{4-[7-(cyclopropylmethyl)-5-fluoro-3-(pyridin-2-yl)-1H-pyrrolo[3,2-b]pyridin-2-yl]pyridin-2-yl}-4,4-difluoro-2-(4-fluorophenyl)butanamide]	9.91 nM	6.99
